Test system: HEK-293T
Assay: Incucyte cell viability with HEK293T; also: filed as whole numbers so only -1 and 0 and 1 occur
Assay type: toxicity, cell-based
Conditions: human, 10 µM, compound concentration 10 uM
[1] = 6 h, replicate number 1, timepoint 6 hours
[2] = 12 h, replicate number 1, timepoint 12 hours
[3] = 18 h, replicate number 1, timepoint 18 hours
[4] = 24 h, replicate number 1, timepoint 24 hours
[5] = 0 h, replicate number 1, timepoint 0 hours
[6] = 0 h, replicate number 2, timepoint 0 hours
[7] = 24 h, replicate number 2, timepoint 24 hours
[8] = 6 h, replicate number 2, timepoint 6 hours
[9] = 12 h, replicate number 2, timepoint 12 hours
[10] = 18 h, replicate number 2, timepoint 18 hours

C[C@@]1(C(=O)Nc2ccc(F)nc2)CCCN1c1nc(Nc2cc(C3CC3)n[nH]2)c2cccn2n1 [BMS-754807]
Growth Rate [1]: 0
Growth Rate [2]: 0
Growth Rate [3]: 0
Growth Rate [4]: 0

CN(C)CC#Cc1ccc(OCCCc2sc(N3CCc4cccc(C(=O)Nc5nc6ccccc6s5)c4C3)nc2C(=O)O)c(F)c1 [A-1155463]
Growth Rate [5]: 0
Growth Rate [6]: 1
Growth Rate [7]: 1

O=C(NCCN1CCOCC1)c1ccc2c(c1)C(=O)c1ccc(Nc3ccc(F)c(NC(=O)c4ccccc4)c3)cc1CC2 [FS-694]
Growth Rate [6]: 0
Growth Rate [1]: 0
Growth Rate [2]: 0
Growth Rate [3]: 0
Growth Rate [4]: 0

c1cn2cc(-c3ccc4cn[nH]c4c3)nc(Nc3ccc(N4CCOCC4)cc3)c2n1 [ENTOSPLETINIB]
Growth Rate [4]: 1

Cn1cncc1[C@@](O)(COc1ccc(C#N)cc1-c1ccc(OC(F)(F)F)cc1)c1ccc(C#N)cc1 [A-108]
Growth Rate [5]: 1
Growth Rate [8]: 0
Growth Rate [2]: 1
Growth Rate [9]: 0
Growth Rate [3]: 0
Growth Rate [4]: 0

CN(C)C(=O)N[C@H]1CC[C@H](CCN2CCN(c3cccc(Cl)c3Cl)CC2)CC1.Cl [CARIPRAZINE HYDROCHLORIDE]
Growth Rate [6]: 1
Growth Rate [1]: 0
Growth Rate [2]: 0
Growth Rate [3]: 0
Growth Rate [4]: 0

CN1C(=O)c2sccc2N(C)c2nc(Nc3ccc(S(N)(=O)=O)cc3)ncc21
Growth Rate [1]: 0
Growth Rate [2]: 0
Growth Rate [3]: 0
Growth Rate [4]: 0

CCN(CC)CCCCNc1ncc2cc(-c3cc(OC)cc(OC)c3)c(NC(=O)NC(C)(C)C)nc2n1 [PD-173074]
Growth Rate [5]: 1
Growth Rate [1]: 0
Growth Rate [2]: 0
Growth Rate [3]: 0
Growth Rate [4]: 0

O=C1NCN(c2ccccc2)C12CCN(CCCOc1ccc(F)cc1)CC2 [SPIRAMIDE]
Growth Rate [5]: 0
Growth Rate [1]: 0
Growth Rate [2]: 0
Growth Rate [3]: 0
Growth Rate [4]: 0

COc1cc2nccc(Oc3ccc(NC(=O)Nc4cc(C)on4)c(Cl)c3)c2cc1OC.O
Growth Rate [6]: 0
Growth Rate [1]: 0
Growth Rate [2]: 0
Growth Rate [3]: 0
Growth Rate [4]: 0

CNc1nc(NCc2ccc(NS(C)(=O)=O)cc2Cl)cc(-c2ccccn2)n1
Growth Rate [5]: 1
Growth Rate [6]: 0
Growth Rate [1]: 0
Growth Rate [2]: 0
Growth Rate [3]: 0
Growth Rate [4]: 0

C=CC(=O)Nc1cc2c(Nc3ccc(F)c(Cl)c3)ncnc2cc1OCCCN1CCOCC1.Cl.Cl [CANERTINIB DIHYDROCHLORIDE]
Growth Rate [1]: 0
Growth Rate [2]: 0
Growth Rate [3]: 0
Growth Rate [4]: 0

COc1ccc(Oc2cc(NCCC(F)(F)F)c3ncc(-c4ccc(C(=O)NC5CC5)c(C)c4)n3n2)c(F)c1F [BAY-1217389]
Growth Rate [5]: 0
Growth Rate [1]: 0
Growth Rate [2]: 0
Growth Rate [3]: 0
Growth Rate [4]: 0

OC1(c2ccc(Cl)cc2)CCN(Cc2c[nH]c3ccccc23)CC1
Growth Rate [5]: 1
Growth Rate [1]: 0
Growth Rate [2]: 0
Growth Rate [3]: 0
Growth Rate [4]: 0

C=CC(=O)Nc1ccc2ncnc(Nc3ccc(OCc4cccc(F)c4)c(Cl)c3)c2c1.Cc1ccc(S(=O)(=O)O)cc1
Growth Rate [5]: 0
Growth Rate [6]: 1
Growth Rate [8]: 0
Growth Rate [9]: 0
Growth Rate [3]: 0
Growth Rate [4]: 0

CN1CCN(c2ccc(OC(F)(F)F)c(Nc3ncc4c(n3)-c3c(c(C(N)=O)nn3CCO)CC4)c2)CC1 [ONVANSERTIB]
Growth Rate [5]: 1
Growth Rate [6]: 0
Growth Rate [1]: 0
Growth Rate [2]: 0
Growth Rate [3]: 0
Growth Rate [4]: 0

COc1cccc([C@@H](C)NCCCc2ccccc2Cl)c1.Cl [TECALCET HYDROCHLORIDE]
Growth Rate [6]: 0
Growth Rate [1]: 0
Growth Rate [2]: 0
Growth Rate [3]: 0
Growth Rate [4]: 0

CN1CCCC(n2nc(Cc3ccc(Cl)cc3)c3ccccc3c2=O)CC1.Cl (configuration not stated) [AZELASTINE HYDROCHLORIDE]
Growth Rate [6]: 1
Growth Rate [1]: 0
Growth Rate [2]: 0
Growth Rate [3]: 0
Growth Rate [4]: 0

Cc1nc(-c2ccc(-c3ccc(C(=O)N4CCc5cc6c(cc54)C4(CCN(C)CC4)CO6)cc3)c(C)c2)no1 [SB-224289]
Growth Rate [6]: 0
Growth Rate [1]: 0
Growth Rate [2]: 0
Growth Rate [3]: 0
Growth Rate [4]: 0

C[C@@H](NCCCc1cccc(C(F)(F)F)c1)c1cccc2ccccc12.Cl [CINACALCET HYDROCHLORIDE]
Growth Rate [6]: 0
Growth Rate [1]: 0
Growth Rate [2]: 0
Growth Rate [3]: 0
Growth Rate [4]: 0

Cc1nc(Nc2n[nH]c3c2CN(C(=O)N[C@H](CN(C)C)c2ccccc2)C3(C)C)c2sccc2n1 [PF-03758309]
Growth Rate [1]: 0
Growth Rate [2]: 0
Growth Rate [3]: 0
Growth Rate [4]: 0

CN(C)c1ncnc(-c2ccc3nc(Nc4cc(CN5CCN(C(=O)CC(F)(F)F)CC5)ccn4)[nH]c3c2)c1Cl [BAY-440]
Growth Rate [6]: 0
Growth Rate [1]: 0
Growth Rate [2]: 0
Growth Rate [3]: 0
Growth Rate [4]: 0

Cc1cc(C)cc(-c2cnc3cc(Cl)c(-c4cccc(O)c4)cc3c2OCCCN)c1
Growth Rate [6]: 1
Growth Rate [1]: 0
Growth Rate [2]: 0
Growth Rate [3]: 0
Growth Rate [4]: 0

CCn1c(=O)c(-c2ccc(Cl)cc2Cl)cc2cnc(Nc3ccc(N4CCNCC4)c(F)c3)nc21
Growth Rate [1]: 0
Growth Rate [2]: 0
Growth Rate [3]: 0
Growth Rate [4]: 0

CN(C)C(=O)/C(C#N)=C/c1ccc(-c2nc3cnc4[nH]ccc4c3n2C2CCCCC2)o1
Growth Rate [5]: 0
Growth Rate [7]: 1

Cn1c(-c2csc(C3CCN(CC4=NC5N=CC=CC5N4)CC3)n2)nc2ccccc21 (configuration not stated) [BAY-070]
Growth Rate [1]: 0
Growth Rate [2]: 0
Growth Rate [3]: 0
Growth Rate [4]: 0

Nc1c(C(=O)NCc2ccc(C(=O)NCCCC3CCCCC3)cc2)cnn1-c1ccccc1 [SR-318]
Growth Rate [5]: 0
Growth Rate [8]: 0
Growth Rate [9]: 0
Growth Rate [3]: 1
Growth Rate [10]: 0
Growth Rate [4]: 0

CC[C@H](C)C(=O)O[C@H]1C[C@@H](C)C=C2C=C[C@H](C)[C@H](CC[C@@H]3C[C@@H](O)CC(=O)O3)[C@H]21 [LOVASTATIN]
Growth Rate [5]: 0
Growth Rate [1]: 1
Growth Rate [2]: 0
Growth Rate [9]: 1
Growth Rate [3]: 0
Growth Rate [4]: 0

Cn1cc(C2=C(c3cn(C4CCN(Cc5ccccn5)CC4)c4ccccc34)C(=O)NC2=O)c2ccccc21 [ENZASTAURIN]
Growth Rate [1]: 0
Growth Rate [2]: 0
Growth Rate [3]: 0
Growth Rate [4]: 0

COc1ncc(-c2ccc3nccc(-c4ccnnc4)c3c2)cc1NS(=O)(=O)c1ccc(F)cc1F [OMIPALISIB]
Growth Rate [1]: 0
Growth Rate [2]: 0
Growth Rate [3]: 0
Growth Rate [4]: 0

Cc1csc2c(N[C@@H](C)CN3CCN(S(=O)(=O)c4ccc(Cl)c(Cl)c4)CC3)ncnc12
Growth Rate [5]: 0
Growth Rate [1]: 0
Growth Rate [2]: 0
Growth Rate [3]: 0
Growth Rate [4]: 0

Cn1cc(-c2[nH]c3cc(NC(=O)[C@H](N)C4CCCCC4)cc4c3c2C=NNC4=O)cn1
Growth Rate [1]: 0
Growth Rate [2]: 0
Growth Rate [3]: 0
Growth Rate [4]: 0

CN1CCN(CCOc2cc(OC3CCOCC3)c3c(Nc4c(Cl)ccc5c4OCO5)ncnc3c2)CC1 [SARACATINIB]
Growth Rate [1]: 0
Growth Rate [2]: 0
Growth Rate [3]: 0
Growth Rate [4]: 0

CCOCCn1cc(C(=O)Nc2ccc(-n3nc(-c4cccnc4)cc3C(F)(F)F)cn2)ccc1=O [BI 1935]
Growth Rate [5]: 1
Growth Rate [1]: 0
Growth Rate [2]: 0
Growth Rate [3]: 0
Growth Rate [4]: 0

CC(C)NCC(O)COc1ccc(CCOCC2CC2)cc1.Cl (configuration not stated) [BETAXOLOL HYDROCHLORIDE]
Growth Rate [6]: 0
Growth Rate [1]: 0
Growth Rate [8]: 1
Growth Rate [2]: 0
Growth Rate [3]: 0
Growth Rate [4]: 0

Cc1sc2c(c1C)C(c1ccc(Cl)cc1)=N[C@@H](CC(=O)OC(C)(C)C)c1nnc(C)n1-2
Growth Rate [5]: 0
Growth Rate [6]: 1
Growth Rate [8]: 0
Growth Rate [9]: 0
Growth Rate [3]: 1
Growth Rate [10]: 0
Growth Rate [4]: 0

Cl.N#Cc1ccc2[nH]cc(CCCCN3CCN(c4ccc5oc(C(N)=O)cc5c4)CC3)c2c1 [VILAZODONE HYDROCHLORIDE]
Growth Rate [5]: 0
Growth Rate [1]: 0
Growth Rate [2]: 0
Growth Rate [3]: 0
Growth Rate [4]: 0

C=CC(=O)Nc1cccc(C(=O)Nc2ccc(Nc3cc(-c4[nH]c(SC)nc4C)ccn3)cc2)c1
Growth Rate [5]: 0
Growth Rate [6]: 1
Growth Rate [1]: 0
Growth Rate [2]: 0
Growth Rate [3]: 0
Growth Rate [10]: 1
Growth Rate [4]: 0

CN1CCC[C@@H]1CCO[C@](C)(c1ccccc1)c1ccc(Cl)cc1.O=C(O)/C=C/C(=O)O [CLEMASTINE FUMARATE]
Growth Rate [6]: 1
Growth Rate [1]: 0
Growth Rate [2]: 0
Growth Rate [3]: 0
Growth Rate [4]: 0

COc1cc(-n2cnc3cc(-c4ccc(Cl)cc4)sc3c2=O)ccc1OCCN1CCCC1
Growth Rate [6]: 1
Growth Rate [1]: 0
Growth Rate [2]: 0
Growth Rate [3]: 0
Growth Rate [4]: 0

NC(=O)Nc1cc(-c2cccc(F)c2)sc1C(=O)N[C@H]1CCCNC1 [AZD-7762]
Growth Rate [5]: 0
Growth Rate [6]: 1
Growth Rate [1]: 0
Growth Rate [2]: 0
Growth Rate [3]: 0
Growth Rate [4]: 0

Cc1[nH]c(/C=C2\C(=O)Nc3ccc(S(=O)(=O)N(C)c4cccc(Cl)c4)cc32)c(C)c1C(=O)N1CCN(C)CC1
Growth Rate [5]: 0
Growth Rate [3]: 0
Growth Rate [10]: 1
Growth Rate [4]: 0

O=C(NCCCC1CCCCC1)c1ccc(CNC(=O)c2cnn(-c3ccccc3)c2C(F)(F)F)cc1 [SR-321]
Growth Rate [5]: 0
Growth Rate [6]: 1
Growth Rate [1]: 0
Growth Rate [2]: 0
Growth Rate [3]: 0
Growth Rate [4]: 0

Cc1nc(-c2cn3c(n2)-c2ccc(-c4cnn(C(C)(C)C(N)=O)c4)cc2OCC3)n(C(C)C)n1 [TASELISIB]
Growth Rate [1]: 0
Growth Rate [2]: 0
Growth Rate [3]: 0
Growth Rate [4]: 0

Cc1c(-c2ccc(O)cc2)n(Cc2ccc(OCCN3CCCCCC3)cc2)c2ccc(O)cc12 [BAZEDOXIFENE]
Growth Rate [6]: 0
Growth Rate [1]: 0
Growth Rate [2]: 0
Growth Rate [3]: 0
Growth Rate [4]: 0

CC(C)(O)CNc1ncc(-c2ccnc(Nc3ccnc(Cl)c3)n2)c(CC2CC2)n1
Growth Rate [6]: 1
Growth Rate [1]: 0
Growth Rate [2]: 0
Growth Rate [3]: 0
Growth Rate [4]: 0
